# Values of other authors, collected in patent publication US20050203299A1 (priority 2003, published 2005).
# Assays:
# [1] = biological target: T1, serotonin 5-HT2C receptor (Homo sapiens, UniProt P28335)
# T1 sequence (P28335 33-458): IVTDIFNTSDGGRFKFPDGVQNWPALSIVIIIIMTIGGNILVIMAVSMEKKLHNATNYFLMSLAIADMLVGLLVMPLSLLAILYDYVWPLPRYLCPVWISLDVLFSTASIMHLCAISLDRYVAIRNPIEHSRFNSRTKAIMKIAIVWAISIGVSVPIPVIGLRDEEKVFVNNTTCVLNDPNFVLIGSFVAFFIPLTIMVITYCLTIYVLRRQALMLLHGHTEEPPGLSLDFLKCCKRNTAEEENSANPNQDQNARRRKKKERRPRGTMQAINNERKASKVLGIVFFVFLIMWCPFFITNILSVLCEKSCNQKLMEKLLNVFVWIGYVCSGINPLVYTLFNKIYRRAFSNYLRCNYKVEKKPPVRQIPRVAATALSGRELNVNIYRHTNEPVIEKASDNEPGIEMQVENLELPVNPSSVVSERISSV
# [2] = tested on: cholinergic muscarinic receptors
# histamine H1 receptor = histamine H1 receptor (Homo sapiens, UniProt P35367)
# Chain of histamine H1 receptor (P35367 whole entry): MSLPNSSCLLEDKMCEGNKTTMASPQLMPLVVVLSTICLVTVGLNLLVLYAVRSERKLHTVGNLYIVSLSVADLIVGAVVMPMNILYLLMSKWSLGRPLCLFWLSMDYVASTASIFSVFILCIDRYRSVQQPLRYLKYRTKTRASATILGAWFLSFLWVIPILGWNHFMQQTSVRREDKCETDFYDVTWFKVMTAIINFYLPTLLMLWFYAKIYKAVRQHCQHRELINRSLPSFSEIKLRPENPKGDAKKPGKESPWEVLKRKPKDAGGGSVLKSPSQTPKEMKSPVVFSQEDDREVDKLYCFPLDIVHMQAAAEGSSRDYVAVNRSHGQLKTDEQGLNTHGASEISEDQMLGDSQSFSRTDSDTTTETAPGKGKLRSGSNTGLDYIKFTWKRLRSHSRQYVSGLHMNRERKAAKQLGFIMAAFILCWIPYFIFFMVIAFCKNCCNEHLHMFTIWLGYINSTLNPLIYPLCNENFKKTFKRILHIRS
# [3] = biological target: T2, serotonin 5-HT1A receptor (Homo sapiens, UniProt P08908)
# T2 sequence (P08908 1-422): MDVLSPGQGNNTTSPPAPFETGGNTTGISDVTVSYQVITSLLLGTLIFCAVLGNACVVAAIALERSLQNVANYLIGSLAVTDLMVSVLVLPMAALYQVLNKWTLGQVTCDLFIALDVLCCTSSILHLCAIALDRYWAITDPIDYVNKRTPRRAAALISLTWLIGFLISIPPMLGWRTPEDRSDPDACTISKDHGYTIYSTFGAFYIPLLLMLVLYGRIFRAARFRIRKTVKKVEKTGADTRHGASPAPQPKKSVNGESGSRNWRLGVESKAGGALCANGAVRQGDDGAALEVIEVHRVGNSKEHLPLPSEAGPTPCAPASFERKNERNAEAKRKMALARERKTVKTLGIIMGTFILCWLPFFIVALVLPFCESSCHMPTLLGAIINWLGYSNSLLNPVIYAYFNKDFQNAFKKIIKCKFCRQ
# serotonin reuptake site = serotonin reuptake site (Homo sapiens, UniProt P31645)
# Chain of serotonin reuptake site (P31645 whole entry): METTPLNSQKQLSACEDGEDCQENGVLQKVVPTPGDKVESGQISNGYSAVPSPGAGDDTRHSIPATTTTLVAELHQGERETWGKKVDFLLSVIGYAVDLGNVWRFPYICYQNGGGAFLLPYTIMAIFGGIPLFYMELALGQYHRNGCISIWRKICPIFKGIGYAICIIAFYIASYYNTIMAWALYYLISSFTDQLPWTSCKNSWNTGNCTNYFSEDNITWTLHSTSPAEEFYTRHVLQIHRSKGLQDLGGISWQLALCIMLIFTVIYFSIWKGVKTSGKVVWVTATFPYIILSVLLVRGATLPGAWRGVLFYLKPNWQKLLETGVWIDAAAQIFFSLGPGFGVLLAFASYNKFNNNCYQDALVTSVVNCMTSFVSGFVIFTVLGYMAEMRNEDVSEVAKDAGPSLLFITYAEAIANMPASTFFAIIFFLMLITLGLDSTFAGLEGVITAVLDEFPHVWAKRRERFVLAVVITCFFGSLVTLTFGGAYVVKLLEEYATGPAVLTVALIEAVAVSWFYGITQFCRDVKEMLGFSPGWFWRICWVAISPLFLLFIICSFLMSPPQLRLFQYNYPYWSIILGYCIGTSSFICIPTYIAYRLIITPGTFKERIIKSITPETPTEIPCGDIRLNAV
# [4] = biological target: serotonin 5-HT2A receptor (Homo sapiens, UniProt P28223)
# Chain of serotonin 5-HT2A receptor (P28223 whole entry): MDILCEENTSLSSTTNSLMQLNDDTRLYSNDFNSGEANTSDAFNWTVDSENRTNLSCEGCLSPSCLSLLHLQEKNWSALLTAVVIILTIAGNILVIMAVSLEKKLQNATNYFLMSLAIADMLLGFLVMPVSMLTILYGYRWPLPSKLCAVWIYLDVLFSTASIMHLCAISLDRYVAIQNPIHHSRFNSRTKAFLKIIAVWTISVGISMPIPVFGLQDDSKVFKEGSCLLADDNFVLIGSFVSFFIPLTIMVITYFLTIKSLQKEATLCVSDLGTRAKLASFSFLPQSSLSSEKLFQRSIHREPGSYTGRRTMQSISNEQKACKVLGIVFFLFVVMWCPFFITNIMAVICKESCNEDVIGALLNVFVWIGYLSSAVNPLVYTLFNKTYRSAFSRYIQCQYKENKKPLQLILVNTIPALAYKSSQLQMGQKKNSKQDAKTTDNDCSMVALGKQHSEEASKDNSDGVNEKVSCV
# [5] = prepared by recrystallization from ethanol or by heating aripiprazole hydrate at 80° C.; according to WO 03/26659
Structure (SMILES),affinity for α1-adrenergic receptor (α1-adrenergic receptor),affinity for serotonin 5-HT2C receptor [1],affinity for cholinergic muscarinic receptors [2],affinity for histamine H1 receptor (histamine H1 receptor),affinity for serotonin 5-HT1A receptor [3],affinity for serotonin reuptake site (serotonin reuptake site),affinity for serotonin 5-HT2A receptor [4],hygroscopicity [5]
O=C1CCc2ccc(OCCCCN3CCN(c4cccc(Cl)c4Cl)CC3)cc2N1 [Aripiprazole],moderate affinity,moderate affinity,no appreciable affinity,moderate affinity,high affinity,moderate affinity,high affinity,–
"O=C1CCc2ccc(OCCCCN3CCN(c4cccc(Cl)c4Cl)CC3)cc2N1 [anhydride aripiprazole, aripiprazole]",–,–,–,–,–,–,–,significantly hygroscopic
